Results: PubChem BioAssay (NCI)
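48-hour exposure; five concentrations; linearly interpolated endpoints. The concentration for full growth arrest is given as TGI.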

Tested on: A498 renal
Assay: DTP human tumour cell line panel, 48 h

Row | SMILES | TGI
1 | C=C(CC[C@@H](C)[C@H]1CC[C@@]2(C)C3=C(CC[C@]12C)[C@@]1(C)CC[C@H](O)[C@@H](C)C1CC3)C(C)C (stereo partly specified) | 2.58 µM
2 | C=C1CCC23CC(CC[C@@H]2[C@@]12C[C@@H](c1ccoc1)OC2=O)OC3=O (stereo partly specified) | > 100 µM
3 | CC(=O)OCCOCn1cnc2c(Cl)nc(Cl)nc21 | 91.2 µM
4 | CNC(=O)N1CN(c2ccccc2)C2(CCN(CCCC3(c4ccc(F)cc4)OCCO3)CC2)C1=O | > 100 µM
5 | CC(C)=CC(=O)C[C@H]1C(=O)O[C@@H]2C[C@H]3C(C)=CC(=O)[C@@H](O)[C@]3(C)[C@H]3[C@@]4(O)OC[C@]32[C@@H]1[C@@H](C)[C@H]4O | 1.15 µM
6 | CCN(CC)CC(=O)O[C@]1(CC)C(=O)OCc2c1cc1n(c2=O)Cc2cc3ccccc3nc2-1 | 0.256 µM
7 | Cn1c(=O)c2[nH]c(CCCCC(=O)O)nc2n(C)c1=O | > 100 µM
8 | N#Cc1nc(C2=C(Cl)c3ccccc3OC2)[nH]c1C#N | 66.1 µM
9 | CC(=NNC(=S)Nc1ccc(C)cc1)c1cccc(C(C)=NNC(=S)Nc2ccc(C)cc2)n1 | 80.9 µM
10 | N#Cc1c(-c2ccccc2)cc(Nc2cccc(C(F)(F)F)c2)n2c1nc1ccccc12 | 12.6 µM
11 | COc1ccc(O)c(/C(C)=N/NC(=S)N(C)C)c1 | > 100 µM
12 | c1csc(-c2cc(-c3cccs3)c(-c3ccsc3)s2)c1 | > 100 µM
13 | CN1C2CCC1CC(CCNC(c1ccccc1)c1ccccc1)C2 (stereo unspecified) | 60.5 µM
14 | CCOP(=O)(O)C1C(CO)OC(n2ccc(=O)[nH]c2=O)C1O (stereo unspecified) | > 100 µM
15 | CSC1=N/C(=C\c2ccccc2)C(=O)N1CN1CCCCC1 | > 100 µM

Tested on: BT-549 breast
Assay: DTP human tumour cell line panel, 48 h

Row | SMILES | TGI
16 | Cc1ccc(N=Nc2c(C)c(C#N)c(=S)n(C3OC(CO)C(O)C(O)C3O)c2C)cc1 (stereo unspecified) | 54.4 µM
17 | C=C(CC[C@@H](C)[C@H]1CC[C@@]2(C)C3=C(CC[C@]12C)[C@@]1(C)CC[C@H](O)[C@@H](C)C1CC3)C(C)C (stereo partly specified) | 3.13 µM
18 | CC(=O)OCCOCn1cnc2c(Cl)nc(Cl)nc21 | 36.4 µM
19 | O=C(Cc1ccccc1)N/N=C/c1ccccc1O | > 100 µM
20 | COc1ccc(N2C(=O)c3cc(C)cnc3S2(=O)=O)cc1 | > 100 µM
21 | CC(C)=CC(=O)C[C@H]1C(=O)O[C@@H]2C[C@H]3C(C)=CC(=O)[C@@H](O)[C@]3(C)[C@H]3[C@@]4(O)OC[C@]32[C@@H]1[C@@H](C)[C@H]4O | 0.205 µM
22 | CCN(CC)CC(=O)O[C@]1(CC)C(=O)OCc2c1cc1n(c2=O)Cc2cc3ccccc3nc2-1 | 1.93 µM
23 | Cn1c(=O)c2[nH]c(CCCCC(=O)O)nc2n(C)c1=O | > 100 µM
24 | N#Cc1nc(C2=C(Cl)c3ccccc3OC2)[nH]c1C#N | 48 µM
25 | Cc1ccc(-c2c3nc(c(-c4ccc(C)cc4)c4ccc([nH]4)c(-c4ccc(OCC5COC(C)(C)O5)cc4)c4nc(c(-c5ccc(C)cc5)c5ccc2[nH]5)C=C4)C=C3)cc1 (stereo unspecified) | > 100 µM
26 | N#Cc1c(-c2ccccc2)cc(Nc2cccc(C(F)(F)F)c2)n2c1nc1ccccc12 | 14.1 µM
27 | COc1ccc(O)c(/C(C)=N/NC(=S)N(C)C)c1 | > 100 µM
28 | c1ccc(CSP234N5CCN2CCN3CCN4CC5)c(CSP234N5CCN2CCN3CCN4CC5)c1 | > 100 µM
29 | CN1C2CCC1CC(CCNC(c1ccccc1)c1ccccc1)C2 (stereo unspecified) | > 100 µM
30 | CCOP(=O)(O)C1C(CO)OC(n2ccc(=O)[nH]c2=O)C1O (stereo unspecified) | > 100 µM
31 | O=C1NCCCNCCCNCCCNC(=O)c2cccc1n2 | > 100 µM

Tested on: CCRF-CEM leukemia
Assay: DTP human tumour cell line panel, 48 h

Row | SMILES | TGI
32 | Cc1ccc(N=Nc2c(C)c(C#N)c(=S)n(C3OC(CO)C(O)C(O)C3O)c2C)cc1 (stereo unspecified) | > 100 µM
33 | C=C(CC[C@@H](C)[C@H]1CC[C@@]2(C)C3=C(CC[C@]12C)[C@@]1(C)CC[C@H](O)[C@@H](C)C1CC3)C(C)C (stereo partly specified) | 2.22 µM
34 | C=C1CCC23CC(CC[C@@H]2[C@@]12C[C@@H](c1ccoc1)OC2=O)OC3=O (stereo partly specified) | > 100 µM
35 | CC(=O)OCCOCn1cnc2c(Cl)nc(Cl)nc21 | 23.7 µM
36 | CNC(=O)N1CN(c2ccccc2)C2(CCN(CCCC3(c4ccc(F)cc4)OCCO3)CC2)C1=O | > 100 µM
37 | O=C(Cc1ccccc1)N/N=C/c1ccccc1O | > 100 µM
38 | COc1ccc(N2C(=O)c3cc(C)cnc3S2(=O)=O)cc1 | > 100 µM
39 | CC(C)=CC(=O)C[C@H]1C(=O)O[C@@H]2C[C@H]3C(C)=CC(=O)[C@@H](O)[C@]3(C)[C@H]3[C@@]4(O)OC[C@]32[C@@H]1[C@@H](C)[C@H]4O | 0.0918 µM
40 | Cn1c(=O)c2[nH]c(CCCCC(=O)O)nc2n(C)c1=O | > 100 µM
41 | N#Cc1nc(C2=C(Cl)c3ccccc3OC2)[nH]c1C#N | > 100 µM
42 | COc1ccc(-c2cc(=O)c3ccccc3[nH]2)c(OC)c1 | > 100 µM
43 | C/C=C(/C)C(=O)O[C@H]1C[C@@H]2[C@@H](O)c3occ(C)c3C[C@]2(C)[C@@H](C)C1 | 47.4 µM
44 | CC(=NNC(=S)Nc1ccc(C)cc1)c1cccc(C(C)=NNC(=S)Nc2ccc(C)cc2)n1 | > 100 µM
45 | COc1ccc(O)c(/C(C)=N/NC(=S)N(C)C)c1 | > 100 µM
46 | c1ccc(CSP234N5CCN2CCN3CCN4CC5)c(CSP234N5CCN2CCN3CCN4CC5)c1 | > 100 µM
47 | c1csc(-c2cc(-c3cccs3)c(-c3ccsc3)s2)c1 | > 100 µM
48 | Cc1ccc(S(=O)(=O)OC(c2ccc(Cl)cc2Cl)C2OC(=O)c3ccccc32)cc1 (stereo unspecified) | > 100 µM
49 | CN1C2CCC1CC(CCNC(c1ccccc1)c1ccccc1)C2 (stereo unspecified) | > 100 µM
50 | CCOP(=O)(O)C1C(CO)OC(n2ccc(=O)[nH]c2=O)C1O (stereo unspecified) | > 100 µM
51 | O=C1NCCCNCCCNCCCNC(=O)c2cccc1n2 | > 100 µM
52 | O=C1O/C(=C(/Br)c2ccc(Cl)c(Cl)c2)c2ccccc21 | > 10 µM
53 | CSC1=N/C(=C\c2ccccc2)C(=O)N1CN1CCCCC1 | > 100 µM
54 | CCOC(=O)C(Cc1cn(S(=O)(=O)c2ccccc2)c2ccccc12)(NC(C)=O)C(=O)OCC | 72 µM

Tested on: COLO 205 colon
Assay: DTP human tumour cell line panel, 48 h

Row | SMILES | TGI
55 | Cc1ccc(N=Nc2c(C)c(C#N)c(=S)n(C3OC(CO)C(O)C(O)C3O)c2C)cc1 (stereo unspecified) | > 100 µM
56 | C=C(CC[C@@H](C)[C@H]1CC[C@@]2(C)C3=C(CC[C@]12C)[C@@]1(C)CC[C@H](O)[C@@H](C)C1CC3)C(C)C (stereo partly specified) | 2.41 µM
